From patent publication US10905654B2, “Compositions of bakuchiol and methods of making the same” (Unigen, Inc., priority 2005, dated 2021)

Assays:
[1] = tested on: Microsporum canis (ATCC 36299); assay: Antimicrobial activity; format: cell-based; settings: 99% pure sample, tested at 0.03-100 μg/mL
[2] = physchem
[3] = tested on: Trichophyton mentagrophytes (ATCC 9533); assay: Antimicrobial activity; format: cell-based; settings: 99% pure sample; tested at 0.03-100 μg/mL
[4] = Acute toxicity, 14-day study in mice; format: in vivo, female ICR mice
Protocol: […] Forty female ICR mice (Harlan) aged 4-5 weeks old were used for the 14-day study. Mice were administered […] of the acute dose daily, approximately 2 g/kg by weight per test article per day. The first 10 mice received the composition containing 20.7% bakuchiol, while the second group of 10 mice received a composition containing 99% bakuchiol. The UP256 composition was suspended in water and administered through a syringe. Twenty mice were administered water, as the control group. The weights of all mice were measured, including baseline, 3 mid points, and an endpoint. […] Any abnormal health conditions or behavior was recorded over the two-week period. A necropsy of all mice was completed on day 14 and blood from all groups was collected for a complete blood screen. Two mice picked randomly from each of groups also had kidney and liver tissues removed for Histopathology. All blood work and pathology work was completed through Antech Diagnostics.

[5] = tested on: Pityrosporum ovale (ATCC 38593); assay: Antimicrobial activity; format: cell-based; settings: 99% pure sample, tested at 0.03-100 μg/mL
[6] = biological target: COX-1 (Homo sapiens, UniProt P23219); assay: COX-1 inhibition, peroxidase activity assay; format: biochemical; settings: 99% bakuchiol sample, IC50 normalized to enzyme units
Excerpt: In order to screen for compounds that inhibited COX-1 and COX-2 activity, a high throughput, in vitro assay was developed that utilized the inhibition of the peroxidase activity of both enzymes. (Needleman et al. (1986) Annu Rev Biochem. 55:69). Briefly, the composition or compound being examined was titrated against a fixed amount of COX-1 and COX-2 enzymes. A cleavable, peroxide chromophore was included in the assay to visualize the peroxidase activity of each enzyme in presence of arachidonic acid as a cofactor. Typically, assays were performed in a 96-well format. Each inhibitor, taken from a 10 mg/mL stock solution in 100% DMSO, was tested in triplicate at room temperature using the following range of concentrations: 0, 0.1, 1, 5, 10, 20, 50, 100, and 500 μg/mL. To each well, 150 μL of 100 mM Tris-HCl, pH 7.5 was added along with 10 μL of 22 μM Hematin diluted in tris buffer, 10 μL of inhibitor diluted in DMSO and 25 units of either the COX-1 or COX-2 enzyme. […] The plate was shaken for 10 seconds and then incubated 5 minutes before reading the absorbance at 570 nm. The inhibitor concentration vs. % inhibition was plotted and the IC50 determined by taking the half-maximal point along the isotherm and intersecting the concentration on the X-axis. […]

[7] = biological target: T1, PTPIB (Homo sapiens, UniProt P18031); settings: Kim et al. 2005; cited from earlier work
T1 sequence (P18031 1-435): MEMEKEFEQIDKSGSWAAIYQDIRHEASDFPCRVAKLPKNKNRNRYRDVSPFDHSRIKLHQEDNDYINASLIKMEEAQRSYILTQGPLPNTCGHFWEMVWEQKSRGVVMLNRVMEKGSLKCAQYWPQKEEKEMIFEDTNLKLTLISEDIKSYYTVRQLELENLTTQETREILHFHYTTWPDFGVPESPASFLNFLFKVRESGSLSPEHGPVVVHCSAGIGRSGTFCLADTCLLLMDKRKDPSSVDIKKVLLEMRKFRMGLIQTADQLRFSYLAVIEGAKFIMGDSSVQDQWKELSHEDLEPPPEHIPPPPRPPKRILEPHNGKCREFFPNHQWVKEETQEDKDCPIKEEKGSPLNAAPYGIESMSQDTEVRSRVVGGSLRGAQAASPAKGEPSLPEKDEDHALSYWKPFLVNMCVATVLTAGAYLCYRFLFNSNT

[8] = tested on: Epidermophyton floccosum (ATCC 18397); assay: Antimicrobial activity; format: cell-based; settings: 99% pure sample, tested at 0.03-100 μg/mL
[9] = biological target: T2, human 5-lipoxygenase (5-LO or 5-LOX) (Homo sapiens, UniProt P09917); assay: Lipoxygenase Inhibition Assay (LTB4 formation, EIA); format: biochemical; settings: 99% bakuchiol; 5-LOX from human PBML cells, arachidonic acid substrate
T2 construct: 5-LOX was isolated from human PBML cells; endogenous in cells; host or cells: human PBML cells (peripheral blood mononuclear leukocytes)
T2 sequence (P09917 1-674): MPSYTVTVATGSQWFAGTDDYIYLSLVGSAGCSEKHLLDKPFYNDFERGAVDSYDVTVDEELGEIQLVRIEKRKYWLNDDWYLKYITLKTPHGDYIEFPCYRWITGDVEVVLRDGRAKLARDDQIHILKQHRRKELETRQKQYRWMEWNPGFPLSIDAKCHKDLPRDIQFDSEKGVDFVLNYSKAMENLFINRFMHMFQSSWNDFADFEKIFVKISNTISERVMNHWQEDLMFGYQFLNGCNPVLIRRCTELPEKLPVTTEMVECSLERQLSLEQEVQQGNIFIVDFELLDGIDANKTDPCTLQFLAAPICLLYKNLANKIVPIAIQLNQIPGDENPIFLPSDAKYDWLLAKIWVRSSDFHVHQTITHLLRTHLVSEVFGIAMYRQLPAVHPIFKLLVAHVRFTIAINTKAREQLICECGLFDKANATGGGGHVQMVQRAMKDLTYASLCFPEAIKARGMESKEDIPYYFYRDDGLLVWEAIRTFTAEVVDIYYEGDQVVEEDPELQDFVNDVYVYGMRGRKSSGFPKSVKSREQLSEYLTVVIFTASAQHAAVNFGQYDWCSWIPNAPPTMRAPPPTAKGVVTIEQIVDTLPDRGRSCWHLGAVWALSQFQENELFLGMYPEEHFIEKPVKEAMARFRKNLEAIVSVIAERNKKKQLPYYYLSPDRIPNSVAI
Protocol: As noted above, one of the most important pathways involved in the inflammatory response is produced by non-heme, iron-containing lipoxygenases (5-LOX, 12-LOX, and 15-LOX), which catalyze the oxidation of fatty acids such as AA to produce the hydroperoxides 5-, 12- and 15-HPETE, which are then converted to leukotrienes. A Lipoxygenase Inhibition Assay was carried out using a published method (Carter et al. (1991) J. Pharmacol. Exp. Ther. 256(3):929-937, Safayhi et al. (2000) Planta Medica. 66:110-113). 5-LOX was isolated from human PBML cells and arachidonic acid was utilized as a substrate. The test article and positive control were dissolved in 1% DMSO. HBSS (Hank's balanced salt solution) was used as incubation buffer. Pre-incubation time was 15 minutes at 37° C., followed by 15 min. incubation at the same temperature. This assay detects the formation of LTB4 with EIA quantification. Highly pure bakuchiol (99% bakuchiol, #MH-258-12-08) was tested in duplicate at concentrations of 10 μM, 1 μM, 0.1 μM, and 10 nM relative to a positive control-NDGA at five concentrations. The dose response curve is illustrated in the FIG. 6.

[10] = tested on: Staphylococcus epidermidis (Gram Positive, ATCC 12228); assay: Antimicrobial activity, turbidity; format: cell-based; settings: 99% pure sample, tested at 0.03-100 μg/mL, 1 day
Protocol: (§1) The anti-microbial activity of a highly pure bakuchiol sample (99% pure; #MH-258-12-08) was evaluated using published methods (Modugno et al. (1994) Antimicrobial Agents & Chemotherapy 38:2362-2368; Misiek et al. (1973) Antimicrobial Agents & Chemotherapy 3:40-48). Briefly, Staphylococcus epidermidis (Gram Positive. ATCC 12228) was cultured for 20 hours at 37° C. in Mueller-Hinton Broth medium. Propionibacterium acnes (ATCC 6919) was cultured for 2 days at 37° C. in Reinforced Clostridial medium. The test article and positive control were dissolved in 1% DMSO with an incubation volume of 1 mL. The time of assessment was 1 day. Measurement of turbidity was used as the method of quantification. A highly pure bakuchiol sample (99%; #MH-258-12-08) was tested in duplicate at concentrations of 100 μg/mL, 30 μg/mL, 10 μg/mL, 3 μg/mL, 1 μg/mL, 0.3 μg/mL, 0.1 μg/mL and 0.03 μg/mL relative to positive controls-gentamicin at 0.1 μg/mL for Staphylococcus epidermidis and ampicillin at 0.1 μg/mL for Propionibacterium acnes, respectively.

[11] = tested on: Propionibacterium acnes (ATCC 6919); assay: Antimicrobial activity, turbidity; format: cell-based; settings: 99% pure sample, tested at 0.03-100 μg/mL, 1 day
Protocol: as §1

[12] = tested on: COX-1 versus COX-2; settings: COX-1 selective inhibitor; cited from earlier work
[13] = 20.7% and 99% bakuchiol samples, approximately 2 g/kg per day, 14 days
[14] = UP256 at concentrations of 30% and 70%, oral daily 2 g/kg for 14 days
[15] = day 14, 20.7% and 99% bakuchiol samples, approximately 2 g/kg per day
[16] = two mice per group, approximately 2 g/kg per day, 14 days

Chain of COX-1 (P23219 24-599): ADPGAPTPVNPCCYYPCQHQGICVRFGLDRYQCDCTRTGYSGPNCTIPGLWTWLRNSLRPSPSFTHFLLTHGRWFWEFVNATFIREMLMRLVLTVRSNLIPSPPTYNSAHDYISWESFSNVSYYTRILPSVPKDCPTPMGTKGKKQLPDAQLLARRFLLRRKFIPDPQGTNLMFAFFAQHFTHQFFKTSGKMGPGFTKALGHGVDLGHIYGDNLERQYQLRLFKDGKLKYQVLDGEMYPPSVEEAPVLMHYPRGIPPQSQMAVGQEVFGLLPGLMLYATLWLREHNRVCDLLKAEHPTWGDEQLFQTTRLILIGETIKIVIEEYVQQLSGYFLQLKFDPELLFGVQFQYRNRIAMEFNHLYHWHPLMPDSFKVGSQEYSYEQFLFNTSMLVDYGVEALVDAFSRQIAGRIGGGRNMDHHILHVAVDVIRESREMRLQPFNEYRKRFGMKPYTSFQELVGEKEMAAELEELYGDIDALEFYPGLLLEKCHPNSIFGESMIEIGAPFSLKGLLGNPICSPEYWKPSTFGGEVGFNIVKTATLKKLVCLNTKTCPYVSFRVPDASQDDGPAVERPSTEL

With `C=C[C@@](C)(/C=C/c1ccc(O)cc1)CCC=C(C)C` [UP256, bakuchiol] the inhibition [1] was “No inhibition”, the inhibition ([1]; listed as bakuchiol) was “no inhibition” and the logP [2] was 6.13. The “concentration of moderate inhibition” value [3] was 30 µg/mL, the average weight [4, 13] was “continued to increase” and the food/water consumption [4, 13] was “remained the same”. The “significant difference in behavior versus control mice” value [4, 13] was “Aggression towards the investigator (i.e. biting) and towards each other (i.e. fighting in cage)”, the “adverse effects, fourteen-day study” value [4, 14] was “No adverse effects” and the “toxicity in major organs tested” value [4, 14] was “no toxicity”. The “adverse effects, fourteen-day study” value ([4]; both purity levels (20% and 99% purity), approximately 2 g/kg per day) was “No adverse effects”, the blood work [4, 15] was “normal relative to the controls” and the necropsy [4, 15] was “no gross abnormalities or changes in any organ”. The “histopathology, kidney” value [4, 16] was “significant changes were not present”, the “histopathology, liver hepatocyte nuclei” value [4, 16] was “within normal limits” and the inhibition [5] was “No inhibition”. For the same molecule, the inhibition ([5]; listed as bakuchiol) was “no inhibition”, the IC50 [6] was 2.34 µM and the IC50 [7] was 20.8 µM. The inhibition [8] was “No inhibition”, the inhibition ([8]; listed as bakuchiol) was “no inhibition” and the IC50 [9] was 3.41 µM. For the same molecule, the “minimum effective concentration (significant inhibition)” value [10] was 1 µg/mL and the “minimum effective concentration (significant inhibition)” value [11] was 1 µg/mL.

For `CC(=O)Oc1ccccc1C(=O)O` [aspirin], the “effectiveness against COX-1 versus COX-2” value [12] is given as “more than 150 times”.
